Data from publication PMC9263442, “Discovery of Small Molecule KCC2 Potentiators Which Attenuate In Vitro Seizure-Like Activity in Cultured Neurons” (Frontiers in Cell and Developmental Biology, 2022).

Experiments:
Assay type in all cases: cell-based
[1] = biological target: T1, KCC2 (Rattus norvegicus, UniProt Q63633); test: SuperClomeleon Cl- flux assay in HEK-293 with and without KCC2
T1 construct: gene Slc12a5; KCC2b isoform expressed in T-REx-293 cells
T1 sequence (Q63633 43-1139 limits assumed): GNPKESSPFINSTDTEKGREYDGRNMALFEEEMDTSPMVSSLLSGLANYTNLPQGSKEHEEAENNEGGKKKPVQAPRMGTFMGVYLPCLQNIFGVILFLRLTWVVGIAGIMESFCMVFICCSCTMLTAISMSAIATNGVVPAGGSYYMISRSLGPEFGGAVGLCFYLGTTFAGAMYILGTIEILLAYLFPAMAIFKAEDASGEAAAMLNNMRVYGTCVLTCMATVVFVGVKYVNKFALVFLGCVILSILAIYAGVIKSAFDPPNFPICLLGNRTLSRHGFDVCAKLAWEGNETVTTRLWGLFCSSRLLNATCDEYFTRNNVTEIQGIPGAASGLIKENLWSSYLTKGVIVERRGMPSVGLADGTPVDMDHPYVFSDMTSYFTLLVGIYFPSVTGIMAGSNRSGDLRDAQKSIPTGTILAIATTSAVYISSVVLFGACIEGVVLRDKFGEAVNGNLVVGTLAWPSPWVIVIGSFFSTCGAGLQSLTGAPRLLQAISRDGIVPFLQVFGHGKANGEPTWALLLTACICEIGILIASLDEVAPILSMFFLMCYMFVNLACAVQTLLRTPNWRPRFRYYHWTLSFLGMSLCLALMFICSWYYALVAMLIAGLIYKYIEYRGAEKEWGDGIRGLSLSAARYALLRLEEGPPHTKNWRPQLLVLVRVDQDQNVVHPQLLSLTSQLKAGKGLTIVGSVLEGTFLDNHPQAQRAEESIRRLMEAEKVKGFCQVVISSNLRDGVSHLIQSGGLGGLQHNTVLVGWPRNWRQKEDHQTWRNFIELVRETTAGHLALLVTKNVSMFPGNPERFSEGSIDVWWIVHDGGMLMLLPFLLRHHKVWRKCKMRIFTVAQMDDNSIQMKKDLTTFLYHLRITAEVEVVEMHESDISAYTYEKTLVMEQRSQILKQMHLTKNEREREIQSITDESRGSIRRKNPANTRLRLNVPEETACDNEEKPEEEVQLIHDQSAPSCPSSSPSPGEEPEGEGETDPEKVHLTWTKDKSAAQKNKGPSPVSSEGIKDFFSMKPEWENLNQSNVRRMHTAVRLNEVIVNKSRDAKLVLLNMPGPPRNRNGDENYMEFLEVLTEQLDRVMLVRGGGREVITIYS

[2] = biological target: T1, KCC2; test: SuperClomeleon Cl- flux assay in HEK-293 with and without KCC2; Tl+ and […]+ influx
[3] = biological target: T1, KCC2; test: SuperClomeleon Cl- flux assay in HEK-293 overexpressing KCC2

**Q.** Which EC50 [1] does the source give for `Cc1cccc2sc(N(CCN(C)C)C(=O)CCCS(=O)(=O)c3ccccc3)nc12` [VU0500458, N-(2-(Dimethylamino)Ethyl)-N-(4-Methylbenzo[d]Thiazol-2-yl)-4-(Phenylsulfonyl)Butanamide] here?
**A.** 28.8 ± 4.2 µM

**Q.** Which EC50 [2] does the source give for `Cc1ccc(S(=O)(=O)CCCC(=O)N(CCN(C)C)c2nc3c(C)cccc3s2)cc1` [VU0500469, N-(2-(Dimethylamino)Ethyl)-N-(4-Methylbenzo[d]Thiazol-2-yl)-4-Tosylbutanamide] here?
**A.** 14.2 ± 0.7 µM

**Q.** With `Cc1cccc2sc(N(CCN(C)C)C(=O)CCCS(=O)(=O)c3ccc(F)cc3)nc12` [VU0916219, N-(2-(Dimethylamino)Ethyl)-4-((4-Fluorophenyl)Sulfonyl)-N-(4-Methylbenzo[d]Thiazol-2-yl)Butanamide] as the compound, how does the EC50 [3] read?
**A.** 17.1 ± 1.2 µM
